What was measured:
recombinant human hepsin [1] = biological target: recombinant human hepsin (Homo sapiens, UniProt P05981); test: Hepsin activity assay (chromogenic substrate pyroGlu-Pro-Arg-pNA); format: biochemical; details: 30 minutes preincubation at room temperature, substrate at Km
Experimental: (§1) D. Hepsin, Trypsin and Thrombin Activity Assays.
(§2) Purified recombinant hepsin was preincubated with indicated compounds for 30 minutes at room temperature.

recombinant human hepsin [2] = test: as above; format: biochemical; details: hepsin relative to trypsin and thrombin
Experimental: as §1, §2

thrombin = thrombin (Bos taurus (Bovine), UniProt P00735); test: Thrombin activity assay (chromogenic substrate); format: biochemical; details: 30 minutes preincubation at room temperature, substrate at Km
Experimental: (§3) Titration of the chromogenic substrate pryoGlu-Pro-Arg-pNA was performed for each enzyme and the resulting substrate-velocity data fit with nonlinear regression using GraphPad Prism 4 software (GraphPad, La Jolla, Calif.) to calculate Vmax and Km. […] The reactions were then followed using a kinetic microplate reader and the linear rates of increase in absorbance at 405 nm expressed as percent activity (100%×vi/vo). At least three independent experiments were performed for each enzyme. The IC50 was calculated by fitting the data to a four-parameter non-linear regression using GraphPad Prism 4.

[3] = biological target: full-length wild-type murine hepsin expressed in HEK 293FT cells (Mus musculus (Mouse), UniProt O35453); test: Hepsin-dependent pericellular serine proteolytic activity assay; format: cell-based; details: overnight incubation; for attenuation of hepsin-dependent pericellular proteolytic activity: 50 μM, activity/expression level relative to vehicle; for pericellular proteolytic activity (in words): 20 and 50 μM
Sequence of full-length wild-type murine hepsin expressed in HEK 293FT cells (O35453 other isoform, or with tags, fused parts or gaps): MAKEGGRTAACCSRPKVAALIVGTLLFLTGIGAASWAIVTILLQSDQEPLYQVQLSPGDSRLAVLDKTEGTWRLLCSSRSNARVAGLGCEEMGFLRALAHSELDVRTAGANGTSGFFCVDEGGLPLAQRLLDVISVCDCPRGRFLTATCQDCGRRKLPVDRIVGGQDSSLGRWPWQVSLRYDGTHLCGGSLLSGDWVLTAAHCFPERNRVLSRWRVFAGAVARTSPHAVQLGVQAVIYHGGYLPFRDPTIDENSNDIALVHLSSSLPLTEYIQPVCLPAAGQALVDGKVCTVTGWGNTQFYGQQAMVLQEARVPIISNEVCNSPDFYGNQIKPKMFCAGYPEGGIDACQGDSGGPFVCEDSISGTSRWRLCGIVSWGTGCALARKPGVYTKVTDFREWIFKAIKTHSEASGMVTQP
Experimental: Loading was verified via immunoblot against β-actin.
G. Pericellular Serine Proteolytic Activity Assay. […] After 3.5 hrs, transfection media was replaced with fresh media containing 20 μM or 50 μM of test compounds or solvent control (0.5% DMSO in media) and cells incubated overnight. Attached cell monolayers were then washed twice with PBS and once with assay buffer (5% CO2 equilibrated phenol-red free DMEM with 1% BSA) to remove residual serum proteases/inhibitors. Cells were then incubated in assay buffer containing 20 or 50 μM compounds for 30 minutes at 37° C. […] Percent inhibition was calculated as residual activity relative to solvent control. Matched samples were used in parallel to determine toxicity of the test compounds to HEK 293FT cells in this system using the CellTiter-Glo™ assay.
D. Inhibition of Hepsin-Dependent Pericellular Proteolytic Activity. To determine whether the identified compounds were able to inhibit cell-based hepsin activity, an assay was devised to measure hepsin-dependent pericellular serine proteolytic activity (FIG. 5A) (Raynaud et al., 1992 J Cell Physiol 151:378; Bauvois et al., 1990 Eur. J. Immunol. 20:459; Bauvois et al., 1992 Eur. J. Immunol. 22:923; Sameni et al., 2000 Neoplasia 2:496; McGowen et al., 2000 Canc. Res. 60:4771). […] Attached cell monolayers were incubated in assay buffer with peptide substrate and the reactions were allowed to proceed at 37° C. […] Activity levels were adjusted by altering hepsin expression levels to within the linear range of detection. A positive linear rate of activity was observed only for wild-type hepsin-expressing cells and was abolished in the presence of the broad spectrum serine protease inhibitor PEFAbloc.

trypsin = trypsin (Sus scrofa (Pig), UniProt P00761); test: Trypsin activity assay (chromogenic substrate); details: read-out: IC50 trypsin; 30 minutes preincubation at room temperature, substrate at Km
Sequence of trypsin (P00761 9-231): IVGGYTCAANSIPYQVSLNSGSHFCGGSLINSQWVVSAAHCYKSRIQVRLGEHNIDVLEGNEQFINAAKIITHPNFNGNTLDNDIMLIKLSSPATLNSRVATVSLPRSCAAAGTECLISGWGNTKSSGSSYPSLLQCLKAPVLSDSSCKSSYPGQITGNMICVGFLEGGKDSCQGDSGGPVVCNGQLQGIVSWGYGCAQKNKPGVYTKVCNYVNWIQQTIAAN
Experimental: as §3

LNCaP cells = test: Cell cytotoxicity assay (CellTiter-Glo, ATP-luciferase); details: 20 μM, 72 hours, compounds replenished daily
[4] = system: MP-1 mouse prostate epithelial cell line; test: as above; details: MP-1, 20 μM, 72 hours, compounds replenished daily
HepG2 cells = test: as above; details: HepG2, 20 μM, 72 hours, compounds replenished daily
hepsin = hepsin (Mus musculus (Mouse), UniProt O35453); test: Immunoblot of hepsin expression levels in compound treated HEK 293FT cells; details: 20 and 50 μM, 24 hours
Experimental: The membrane was blocked overnight in TBST buffer containing: 5% non-fat milk, 2% normal goat serum in 50 mM Tris-HCl, pH 8.0, 100 mM NaCl, 0.1% Tween-20. The membrane was then incubated in 3% BSA in TBST with polyclonal anti-hepsin antibody (1:1000) for two hours at room temperature, washed 3×5 minutes with TBST and incubated for one hour in 0.1% BSA in TBST containing goat-anti-rabbit-HRP secondary antibody (1:2000), washed 3×5 minutes in TBST and developed with ECL (Pierce Chemicals, Rockford, Ill.). […] Expression levels were quantified by densitometry using ImageQuantTL™ (GE Healthcare Life Sciences, Piscataway, N.J.).
As treatment with chemical compounds may alter hepsin expression level (and thereby impact pericellular proteolytic activity), hepsin levels in drug-treated cells were determined via immunoblotting (FIG. 6B).

[5] = approximate value; cited from earlier work

Sequence of recombinant human hepsin (Homo sapiens, UniProt P05981) (P05981 1-162 limits assumed): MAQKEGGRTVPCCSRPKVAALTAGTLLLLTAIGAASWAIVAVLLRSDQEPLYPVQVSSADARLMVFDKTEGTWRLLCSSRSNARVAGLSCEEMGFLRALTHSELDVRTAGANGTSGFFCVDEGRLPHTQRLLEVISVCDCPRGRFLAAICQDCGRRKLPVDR
Sequence of recombinant human hepsin (Homo sapiens, UniProt P05981) (P05981 163-417 limits assumed): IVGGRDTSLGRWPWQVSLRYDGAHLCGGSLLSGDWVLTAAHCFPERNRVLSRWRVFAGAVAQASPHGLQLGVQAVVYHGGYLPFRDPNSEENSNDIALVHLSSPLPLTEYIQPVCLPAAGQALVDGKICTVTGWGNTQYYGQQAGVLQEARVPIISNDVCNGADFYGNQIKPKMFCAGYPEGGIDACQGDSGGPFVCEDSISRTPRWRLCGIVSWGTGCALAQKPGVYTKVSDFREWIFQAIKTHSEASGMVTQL

| SMILES | IC50 (recombinant human hepsin [1]) [µM] | specificity for hepsin (recombinant human hepsin [2]) [fold] | IC50 (thrombin) [µM] | attenuation of hepsin-dependent pericellular proteolytic activity [3] [%] | attenuation of hepsin-dependent pericellular proteolytic activity ([3]; listed as Meclizine) [%] | pericellular proteolytic activity (in words) [3] | IC50 (trypsin) [µM] | cellular toxicity (cell viability) (LNCaP cells) | cellular toxicity (cell viability) [4] | cellular toxicity (cell viability) (HepG2 cells) | hepsin expression levels (hepsin) | logP [5] |
| --- | --- | --- | --- | --- | --- | --- | --- | --- | --- | --- | --- | --- |
| Cc1cccc(CN2CCN(C(c3ccccc3)c3ccc(Cl)cc3)CC2)c1 (stereo not shown) [Compound 13, 1-[(4-chlorophenyl)(phenyl)methyl]-4-(3-methylbenzyl)piperazine, reference compound] | 2.02 ± 0.37 | > 10 | > 20 | ~25 | 30 | attenuated pericellular proteolytic activity in a dose dependent manner | > 20 | limited or no cytotoxicity | limited or no cytotoxicity | limited or no cytotoxicity | without substantially affecting hepsin expression levels |  |
| CC(C)(Sc1cc(C(C)(C)C)c(O)c(C(C)(C)C)c1)Sc1cc(C(C)(C)C)c(O)c(C(C)(C)C)c1 [Compound 14, 4,4′-[propane-2,2-diylbis(sulfanediyl)]bis(2,6-di-tert-butylphenol), reference compound] | 0.43 ± 0.05 |  | > 20 |  |  | not have shown an ability to reduce pericellular serine protease activity | 33.5 ± 11.5 | limited or no cytotoxicity | limited or no cytotoxicity | limited or no cytotoxicity |  | ~10 |

Reference: US9182402B2, “Hepsin inhibitors” (Fred Hutchinson Cancer Research Center, priority 2008, dated 2015)
